Data published in US9181577B2, “Treatment of chronic pelvic pain syndrome” (Northwestern University, priority 2010, dated 2015).

Each compound was assayed on pelvic pain behavior in EAP NOD mice (assay: Mast cell function inhibitors on established pelvic pain behavior in EAP model (von Frey tactile allodynia)). Conditions: 10 mg/kg each drug, intraperitoneal, at day 10 after PAg injection; tested one hour after drug administration.
Assay type: in vivo
Description: Mice injected with rat prostate antigen (PAg) were tested at baseline and 10 days after injection for the development of pain behavior. Mice were treated at day 10 by intraperitoneal injection with saline (Control, A), 10 mg/kg each of cetrizine (H1, B), ranitidine (H2, C), Cromolyn sodium (MC stabilizer, D) or all three drugs (Combination, E) in a 200 μl volume. Following blinding of treatment and control groups, pelvic pain behavior was tested one hour after drug administration.
The experimental autoimmune prostatitis (EAP) model was selected for experiments conducted during development of embodiments of the present invention. Autoimmunity is one of the etiologies for patients with CPPS. Rat prostate antigen instillation in NOD mice provokes a chronic inflammation that is multifocal and evenly distributed in all the prostatic lobes. Pelvic pain was examined in NOD and C57BL/6 (B6) mice using quantitative behavior testing methods to assess tactile sensitivity of the suprapubic region. […] When expressed as increase in pain from baseline there was an approximately 350% increase in pain behavior compared to sham controls (SEE FIG. 1). This indicates the development of chronic pelvic pain in EAP mice and is the first report of chronic pain symptoms in an animal model of prostatitis.
Pelvic pain behavior in the EAP model was inhibited following the establishment of pain. EAP was induced in NOD mice and pelvic pain behavior at baseline and 10 days after disease onset was measured. Mice were administered a mast cell stabilizer, cromolyn sodium; a histamine receptor 1 antagonist, cetirizine; a histamine receptor 2 antagonist, ranitidine; and a combination of all three pharmacological agents or saline as control. Pelvic pain behavior was tested one hour after drug administration.

SMILES | reduction of pain behavior [%]
O=C(O)COCCN1CCN(C(c2ccccc2)c2ccc(Cl)cc2)CC1 (stereo not drawn) [cetirizine] | 13.6
O=C(O)c1cc(=O)c2c(OCC(O)COc3cccc4oc(C(=O)O)cc(=O)c34)cccc2o1 [cromolyn sodium] | 39.6
CNC(=C[N+](=O)[O-])NCCSCc1ccc(CN(C)C)o1 [ranitidine] | 15.9
